These results are taken from patent publication US5753617A, “Peptide inhibitors of cellular adhesion” (Centocor, Inc., priority 1995, dated 1998).

One series has as its target T1, P-selectin (Homo sapiens, UniProt P16109).
T1 construct: P-selectin is isolated from human platelet lysates; from tissue; host or cells: human platelets (outdated platelet packs from a blood bank)
T1 sequence (P16109 42-830): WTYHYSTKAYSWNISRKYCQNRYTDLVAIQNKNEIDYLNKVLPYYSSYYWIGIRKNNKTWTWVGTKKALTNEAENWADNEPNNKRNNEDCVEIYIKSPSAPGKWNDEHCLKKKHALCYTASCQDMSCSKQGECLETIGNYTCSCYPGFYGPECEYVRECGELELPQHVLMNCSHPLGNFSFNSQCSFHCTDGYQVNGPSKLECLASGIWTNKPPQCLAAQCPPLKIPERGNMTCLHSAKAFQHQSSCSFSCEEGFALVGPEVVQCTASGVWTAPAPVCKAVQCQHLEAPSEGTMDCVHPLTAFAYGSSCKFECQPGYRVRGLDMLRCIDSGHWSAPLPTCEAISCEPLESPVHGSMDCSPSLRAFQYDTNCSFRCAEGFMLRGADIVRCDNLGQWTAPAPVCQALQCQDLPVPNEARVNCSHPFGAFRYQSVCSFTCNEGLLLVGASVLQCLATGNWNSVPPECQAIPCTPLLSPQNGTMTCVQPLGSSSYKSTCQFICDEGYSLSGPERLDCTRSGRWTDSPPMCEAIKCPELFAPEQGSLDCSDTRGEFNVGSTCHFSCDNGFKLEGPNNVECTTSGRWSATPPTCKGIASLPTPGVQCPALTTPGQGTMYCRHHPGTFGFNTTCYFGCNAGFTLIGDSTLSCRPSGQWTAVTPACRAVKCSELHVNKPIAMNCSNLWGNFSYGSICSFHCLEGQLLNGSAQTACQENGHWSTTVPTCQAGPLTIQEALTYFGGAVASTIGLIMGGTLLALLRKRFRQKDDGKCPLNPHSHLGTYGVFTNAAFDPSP
Put plainly: Inhibition of human neutrophil adhesion to purified P-selectin immobilized on plastic wells. In kind it is cell-based. To be noted: inhibiting the binding of human neutrophils to P-selectin. The method in brief:
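Isolated human neutrophils (2×10^5 per well) in HBSS with Ca2+/Mg2+ and HSA added to wells coated overnight at 4° C with platelet-derived P-selectin (5 micrograms/mL), HSA-blocked; 20 min at 22° C. Nonadherent cells removed by inverted centrifugation at 150 g; adherent cells quantified by myeloperoxidase activity.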

In series [1] the test system is neutrophil influx in thioglycolate-induced peritonitis. In words: Inhibition of neutrophil influx in a rat model of thioglycolate-induced peritonitis. It is filed as in vivo. The method, then: CD-1 rats (175-200 g) were injected i.p. with 10 ml thioglycollate medium (BBL #21195/21196 lot#H1KBGP). At -5 minutes, 1.5 hours, and 3.5 hours post thioglycollate injection 5 rats were injected with D-arginyl-D-lysyl-cyclo(D-cysteinyl-glycyl-phenylalanyl-D-cysteinyl)-D-tryptophyl-D-threonyl-D-tryptophyl-D-valineamide (Preferred peptide (19)) (0.75 mls at -5, 0.25 mls at 1.5 and 0.25 mls at 3.5). 5 rats were injected with vehicle at the same time points (0.75 mls at -5, 0.50 mls at 1.5, and 0.25 mls at 3.5). 5 rats received thiogycollate only and served as controls. At 4 hours post thioglycollate injection all animals were sacrificed by CO2 asphyxiation. Neutrophils were harvested by flushing the peritoneal cavity with 50 mls of Hanks balanced salt solution w/o Ca and Mg (JHR Biosciences 55-02178P Lot# IL3697) containing 0.3% ultrapure EDTA (JT Baker 4040-01 lot# D42704). White cells were then counted using the Danam Vet 8 cell counter.

The conditions of series [2]: from CC(C)[C@@H](NC(=O)[C@@H](Cc1c[nH]c2ccccc12)NC(=O)[C@H](NC(=O)[C@@H](Cc1c[nH]c2ccccc12)NC(=O)[C@@H](CS)NC(=O)[C@H](Cc1ccccc1)NC(=O)[C@H](C)NC(=O)[C@@H](CS)NC(=O)[C@@H](CCCCN)NC(=O)[C@H](N)CCCNC(=N)N)[C@H](C)O)C(N)=O; disulfide bond; air/Cu wire, ammonium acetate; water; 0.731 mM; 22.0 h.

pIC50: −log10 of the molar value. Where a SMILES comes first, the peptide text is derived from it. Bridges are numbered along the chain shown (N, C = ends). [ ]: non-standard residue; d: D form.

`CC(C)[C@@H](NC(=O)[C@@H](Cc1c[nH]c2ccccc12)NC(=O)[C@H](NC(=O)[C@@H](Cc1c[nH]c2ccccc12)NC(=O)[C@H]1CSSC[C@@H](NC(=O)[C@@H](CCCCN)NC(=O)[C@H](N)CCCNC(=N)N)C(=O)NCC(=O)N[C@@H](Cc2ccccc2)C(=O)N1)[C@H](C)O)C(N)=O` [(19)] (H-[dR][dK][dC]GF[dC][dW][dT][dW][dV]-NH2; disulfide 3-6) had a pIC50 at P-selectin of 5.22. Besides, the “decrease in neutrophil influx in response to thioglycolate stimulation” value in series [1] (CD-1 rats, thioglycollate i.p., peptide injected at -5 minutes, 1.5 hours and 3.5 hours, peritoneal cells counted at 4 hours) is reported as 67%.

As to `CC(C)[C@@H](NC(=O)[C@@H](Cc1c[nH]c2ccccc12)NC(=O)[C@H](NC(=O)[C@@H](Cc1c[nH]c2ccccc12)NC(=O)[C@H]1CSSC[C@@H](NC(=O)[C@@H](CCCCN)NC(=O)[C@H](N)CCCNC(=N)N)C(=O)NCC(=O)N[C@@H](Cc2ccccc2)C(=O)N1)[C@H](C)O)C(N)=O` [Preferred peptide (19), D-Arginyl-D-lysyl-cyclo(D-cysteinyl-glycyl-phenylalanyl-D-cysteinyl-)-D-tryptophyl-D-threonyl-D-tryptophyl-D-valine-amide] (H-[dR][dK][dC]GF[dC][dW][dT][dW][dV]-NH2; disulfide 3-6), the “inhibition of neutrophil influx (result in words)” value in series [1] (rat thioglycolate-induced peritonitis, FIG. III) is “inhibition of neutrophil influx”.

`CC(C)[C@@H](NC(=O)[C@@H](Cc1c[nH]c2ccccc12)NC(=O)[C@H](NC(=O)[C@@H](Cc1c[nH]c2ccccc12)NC(=O)[C@H]1CSSC[C@@H](NC(=O)[C@@H](CCCCN)NC(=O)[C@H](N)CCCNC(=N)N)C(=O)N[C@@H](C)C(=O)N[C@@H](Cc2ccccc2)C(=O)N1)[C@H](C)O)C(N)=O` [(37)] (H-[dR][dK][dC]AF[dC][dW][dT][dW][dV]-NH2; disulfide 3-6): at P-selectin, the pIC50 is 3.69. This compound also came in with a ring closure, yield of all isomers in series [2] of 1.3%.
